Measured values taken from patent publication US20100298141A1, “SUBSTITUTED PYRIDINE N-OXIDE HERBICIDES” (E. I. DU PONT DE NEMOURS AND COMPANY, priority 2007, published 2010).

Experiments:
redroot pigweed = assay: Test A pre-/postemergence greenhouse test; assay type: in vivo, Amaranthus retroflexus; conditions: for Plant response rating, Pigweed: 0 to 100 scale where 0 is no effect and 100 is complete control; for Pigweed plant response rating: 0 to 100 scale
Method in brief: (§1)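 Untreated controls served as the reference for visual injury ratings taken about ten days after spraying. The non-phytotoxic solvent/surfactant formulation was applied preemergence to seeded loam and sand and postemergence to plants two to ten cm high.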

morningglory = assay: Test A pre-/postemergence greenhouse test; assay type: in vivo, Ipomoea spp.; conditions: for Plant response rating, Morningglory: 0 to 100 scale where 0 is no effect and 100 is complete control; for Morningglory plant response rating: 0 to 100 scale
Method in brief: as §1

umbrella sedge = assay: Test C flooded paddy test; assay type: in vivo, Cyperus difformis; conditions: Flood
Method in brief: (§2)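 Under a constant 3 cm flood, test compounds went directly into the paddy water. Following 13 to 15 days of greenhouse growth, treated species and controls were compared by eye.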

wheat = assay: Test A pre-/postemergence greenhouse test; assay type: in vivo, Triticum aestivum; conditions: for Plant response rating, Wheat: 0 to 100 scale where 0 is no effect and 100 is complete control; for Wheat plant response rating: 0 to 100 scale
Method in brief: as §1

barnyardgrass [1] = assay: Test C flooded paddy test; assay type: in vivo, Echinochloa crus-galli; conditions: Flood
Method in brief: as §2

corn = assay: Test A pre-/postemergence greenhouse test; assay type: in vivo, Zea mays; conditions: for Plant response rating, Corn: 0 to 100 scale where 0 is no effect and 100 is complete control; for Corn plant response rating: 0 to 100 scale
Method in brief: as §1

velvetleaf = assay: Test A pre-/postemergence greenhouse test; assay type: in vivo, Abutilon theophrasti; conditions: for Plant response rating, Velvetleaf: 0 to 100 scale where 0 is no effect and 100 is complete control; for Velvetleaf plant response rating: 0 to 100 scale
Method in brief: as §1

rice = assay: Test C flooded paddy test; assay type: in vivo, Oryza sativa; conditions: Flood
Method in brief: as §2

giant foxtail = assay: Test A pre-/postemergence greenhouse test; assay type: in vivo, Setaria faberi; conditions: for Plant response rating, Foxtail, Giant: 0 to 100 scale where 0 is no effect and 100 is complete control; for Foxtail, Giant plant response rating: 0 to 100 scale
Method in brief: as §1

barnyardgrass [2] = assay: Test A pre-/postemergence greenhouse test; assay type: in vivo, Echinochloa crus-galli; conditions: for Plant response rating, Barnyardgrass: 0 to 100 scale where 0 is no effect and 100 is complete control; for Barnyardgrass plant response rating: 0 to 100 scale
Method in brief: as §1

duck salad = assay: Test C flooded paddy test; assay type: in vivo, Heteranthera limosa; conditions: Flood
Method in brief: as §2

crabgrass = assay: Test A pre-/postemergence greenhouse test; assay type: in vivo, Digitaria sanguinalis; conditions: for Plant response rating, Crabgrass, Large: 0 to 100 scale where 0 is no effect and 100 is complete control; for Crabgrass, Large plant response rating: 0 to 100 scale
Method in brief: as §1

[3] = Postemergence, 500 g ai/ha, 0 is no effect, 100 is complete control
[4] = Preemergence, 125 g ai/ha, 0 no effect, 100 complete control
[5] = Preemergence, 500 g ai/ha, 0 no effect, 100 complete control
[6] = 62 g ai/ha, scale 0 to 100 (0 no effect, 100 complete control)
[7] = 250 g ai/ha, scale 0 to 100, 0 no effect, 100 complete control, 13 to 15 days
[8] = 31 g ai/ha, scale 0 to 100 (0 no effect, 100 complete control)
[9] = 125 g ai/ha, scale 0 to 100, 0 no effect, 100 complete control, 13 to 15 days

Compound: CC(C)c1cc[n+]([O-])c([S+]([O-])Cc2c(C(F)(F)F)nn(C)c2OCC(F)(F)F)c1 (stereo not shown) [Compound 104]
- Plant response rating, Pigweed (redroot pigweed; Postemergence, 125 g ai/ha): 50
- Pigweed plant response rating (redroot pigweed; [3]): 90
- Pigweed plant response rating (redroot pigweed; [4]): 90
- Pigweed plant response rating (redroot pigweed; [5]): 100
- Plant response rating, Morningglory (morningglory; Postemergence, 125 g ai/ha): 30
- Morningglory plant response rating (morningglory; [3]): 100
- Morningglory plant response rating (morningglory; [4]): 50
- Morningglory plant response rating (morningglory; [5]): 100
- Plant response rating, Sedge, Umbrella (umbrella sedge; [6]): 0
- Plant response rating, Sedge, Umbrella (umbrella sedge; [7]): 80
- Plant response rating, Wheat (wheat; Postemergence, 125 g ai/ha): 50
- Wheat plant response rating (wheat; [3]): 60
- Wheat plant response rating (wheat; [4]): 50
- Wheat plant response rating (wheat; [5]): 100
- Plant response rating, Barnyardgrass (barnyardgrass [1]; [6]): 0
- Plant response rating, Barnyardgrass (barnyardgrass [1]; [7]): 20
- Plant response rating, Corn (corn; Postemergence, 125 g ai/ha): 50
- Corn plant response rating (corn; [3]): 70
- Corn plant response rating (corn; [4]): 40
- Corn plant response rating (corn; [5]): 70
- Plant response rating, Velvetleaf (velvetleaf; Postemergence, 125 g ai/ha): 50
- Velvetleaf plant response rating (velvetleaf; [3]): 70
- Velvetleaf plant response rating (velvetleaf; [4]): 40
- Velvetleaf plant response rating (velvetleaf; [5]): 80
- Plant response rating, Rice (rice; [6]): 10
- Plant response rating, Rice (rice; [7]): 15
- Plant response rating, Foxtail, Giant (giant foxtail; Postemergence, 125 g ai/ha): 80
- Foxtail, Giant plant response rating (giant foxtail; [3]): 90
- Foxtail, Giant plant response rating (giant foxtail; [4]): 90
- Foxtail, Giant plant response rating (giant foxtail; [5]): 100
- Plant response rating, Barnyardgrass (barnyardgrass [2]; Postemergence, 125 g ai/ha): 50
- Barnyardgrass plant response rating (barnyardgrass [2]; [3]): 90
- Barnyardgrass plant response rating (barnyardgrass [2]; [4]): 40
- Barnyardgrass plant response rating (barnyardgrass [2]; [5]): 100
- Plant response rating, Ducksalad (duck salad; [6]): 30
- Plant response rating, Ducksalad (duck salad; [7]): 80
- Plant response rating, Crabgrass, Large (crabgrass; Postemergence, 125 g ai/ha): 40
- Crabgrass, Large plant response rating (crabgrass; [3]): 90
- Crabgrass, Large plant response rating (crabgrass; [4]): 80
- Crabgrass, Large plant response rating (crabgrass; [5]): 100

Compound: CC(C)c1cc[n+]([O-])c(S(=O)(=O)Cc2c(C(F)(F)F)nn(C)c2OC(F)F)c1 [Compound 110]
- Plant response rating, Pigweed (redroot pigweed; Postemergence, 125 g ai/ha): 70
- Pigweed plant response rating (redroot pigweed; [3]): 80
- Pigweed plant response rating (redroot pigweed; [4]): 80
- Pigweed plant response rating (redroot pigweed; [5]): 100
- Plant response rating, Morningglory (morningglory; Postemergence, 125 g ai/ha): 40
- Morningglory plant response rating (morningglory; [3]): 100
- Morningglory plant response rating (morningglory; [4]): 60
- Morningglory plant response rating (morningglory; [5]): 100
- Plant response rating, Sedge, Umbrella (umbrella sedge; [8]): 0
- Plant response rating, Sedge, Umbrella (umbrella sedge; [6]): 0
- Plant response rating, Sedge, Umbrella (umbrella sedge; [9]): 0
- Plant response rating, Sedge, Umbrella (umbrella sedge; [7]): 30
- Plant response rating, Wheat (wheat; Postemergence, 125 g ai/ha): 20
- Wheat plant response rating (wheat; [3]): 60
- Wheat plant response rating (wheat; [4]): 30
- Wheat plant response rating (wheat; [5]): 70
- Plant response rating, Barnyardgrass (barnyardgrass [1]; [8]): 0
- Plant response rating, Barnyardgrass (barnyardgrass [1]; [6]): 0
- Plant response rating, Barnyardgrass (barnyardgrass [1]; [9]): 0
- Plant response rating, Barnyardgrass (barnyardgrass [1]; [7]): 0
- Plant response rating, Corn (corn; Postemergence, 125 g ai/ha): 0
- Corn plant response rating (corn; [3]): 60
- Corn plant response rating (corn; [4]): 0
- Corn plant response rating (corn; [5]): 60
- Plant response rating, Velvetleaf (velvetleaf; Postemergence, 125 g ai/ha): 60
- Velvetleaf plant response rating (velvetleaf; [3]): 80
- Velvetleaf plant response rating (velvetleaf; [4]): 50
- Velvetleaf plant response rating (velvetleaf; [5]): 100
- Plant response rating, Rice (rice; [8]): 0
- Plant response rating, Rice (rice; [6]): 0
- Plant response rating, Rice (rice; [9]): 0
- Plant response rating, Rice (rice; [7]): 0
- Plant response rating, Foxtail, Giant (giant foxtail; Postemergence, 125 g ai/ha): 80
- Foxtail, Giant plant response rating (giant foxtail; [3]): 90
- Foxtail, Giant plant response rating (giant foxtail; [4]): 80
- Foxtail, Giant plant response rating (giant foxtail; [5]): 100
- Plant response rating, Barnyardgrass (barnyardgrass [2]; Postemergence, 125 g ai/ha): 60
- Barnyardgrass plant response rating (barnyardgrass [2]; [3]): 80
- Barnyardgrass plant response rating (barnyardgrass [2]; [4]): 90
- Barnyardgrass plant response rating (barnyardgrass [2]; [5]): 100
- Plant response rating, Ducksalad (duck salad; [8]): 0
- Plant response rating, Ducksalad (duck salad; [6]): 0
- Plant response rating, Ducksalad (duck salad; [9]): 50
- Plant response rating, Ducksalad (duck salad; [7]): 75
- Plant response rating, Crabgrass, Large (crabgrass; Postemergence, 125 g ai/ha): 70
- Crabgrass, Large plant response rating (crabgrass; [3]): 90
- Crabgrass, Large plant response rating (crabgrass; [4]): 50
- Crabgrass, Large plant response rating (crabgrass; [5]): 100
